The text below walks through data of publication PMC5704035 (Biochemistry and Biophysics Reports, 2017).

The target of the assay is AzoA (Enterococcus faecalis, UniProt Q831B2). Put plainly: spectroscopy of purified protein, FMN to protein molar ratio. Type of assay: binding. The note with it: co-purified flavin; two sites per homodimer.
Sequence of AzoA (Q831B2 whole entry): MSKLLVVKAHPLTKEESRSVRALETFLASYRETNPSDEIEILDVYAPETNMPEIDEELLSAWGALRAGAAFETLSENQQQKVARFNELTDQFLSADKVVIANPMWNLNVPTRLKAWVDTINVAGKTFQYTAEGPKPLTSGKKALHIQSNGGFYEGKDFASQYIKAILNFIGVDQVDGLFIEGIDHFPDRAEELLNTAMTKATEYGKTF

As for `Cc1cc2nc3c(=O)[nH]c(=O)nc-3n(C[C@H](O)[C@H](O)[C@H](O)COP(=O)(O)O)c2cc1C` [FMN], the “spectroscopy of purified protein, FMN to protein molar ratio” value was “suggesting that two FMN molecules bind to an AzoA (wild-type and mutants)”.
